ChEMBL document CHEMBL1201862, “PubChem BioAssay data set” (2004)
The source made the active and inactive calls. Where a SMILES comes first, the peptide text is derived from it. [ ]: non-standard residue; d: D form. The star is where a group is joined. Ac5c = NC1(C(=O)O)CCCC1; Cbz = O=C(OCc1ccccc1)*

Key:
[1] = target: T1, Heat shock factor protein 1 (Mus musculus, UniProt P38532); experiment: HSF1 potentiators in luciferase reporter cells, confirmation, cell-based, NIH3T3, luminescence, dose retest (AID 435004); assay type: functional;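 note: stress induced by proteasome inhibitor MG132 added 30 min after compound; luciferase reporter driven by HSF1 response element in NIH3T3 cells; actives raise luminescence as potentiators of the MG132 stress response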
T1 sequence (P38532 whole entry): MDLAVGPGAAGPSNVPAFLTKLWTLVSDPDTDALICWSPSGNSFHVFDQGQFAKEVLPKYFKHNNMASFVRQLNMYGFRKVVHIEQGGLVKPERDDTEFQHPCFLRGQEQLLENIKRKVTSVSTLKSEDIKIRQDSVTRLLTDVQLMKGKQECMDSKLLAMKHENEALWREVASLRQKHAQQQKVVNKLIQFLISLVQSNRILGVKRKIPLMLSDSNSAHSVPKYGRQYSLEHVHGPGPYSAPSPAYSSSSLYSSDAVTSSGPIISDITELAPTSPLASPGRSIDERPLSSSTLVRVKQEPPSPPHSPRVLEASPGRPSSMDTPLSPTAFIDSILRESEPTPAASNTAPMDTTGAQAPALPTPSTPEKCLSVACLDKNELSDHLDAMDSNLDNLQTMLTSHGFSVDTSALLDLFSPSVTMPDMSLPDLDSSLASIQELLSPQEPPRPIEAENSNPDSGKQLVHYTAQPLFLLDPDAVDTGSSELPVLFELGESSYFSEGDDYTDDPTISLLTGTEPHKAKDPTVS

[2] = target: DNA dC->dU-editing enzyme APOBEC-3G (Homo sapiens, UniProt Q9HC16); assay type: functional;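 note: Dose-response counterscreen measuring inhibition of APOBEC3G DNA deaminase activity, run while confirming APOBEC3A inhibitors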
[3] = target: DNA dC->dU-editing enzyme APOBEC-3A (Homo sapiens, UniProt P31941); experiment: Dose Response confirmation of small molecule APOBEC3A DNA Deaminase Inhibitors via a fluorescence-based single-stranded DNA deaminase assay. [Related pubchem assays (depositor defined):AID493011, AID493024]; assay type: functional
[4] = control 3'UTR Renilla luciferase suppression, dose response, counter-screen for Shn3 inhibitor project, cell-based, Clone20-Shn3RL, cherry-picked (AID 624133); assay type: functional
[5] = target: FAD-linked sulfhydryl oxidase ALR (Homo sapiens, UniProt P55789); experiment: inhibitors of human ALR sulfhydryl oxidase, dose response, biochemical, H2O2 detection, luminescence, cherry-pick (AID 493248)
Nonstructural protein 1 = Nonstructural protein 1 (Influenza A virus, UniProt Q194T2); assay type: functional, Influenza A virus (A/California/07/2009(H1N1))
[6] = Shn3 3'UTR reporter inhibitors, dose response, cell-based, Clone20 osteoblasts, firefly luciferase, cherry-picked (AID 624132); assay type: functional;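 note: firefly luciferase luminescence from reporter carrying the Shn3 3'UTR in osteoblasts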
[7] = Luminescence Cell-Based Dose Retest to Confirm Inhibitors of Cancer Stem Cells. [Related pubchem assays (depositor defined):AID2717, AID2721]; assay type: functional; details: Homo sapiens
Vero = experiment: cells; assay type: functional; details: Chlorocebus sabaeus
Large T antigen = Large T antigen (Simian virus 40, UniProt P03070); assay type: functional, Betapolyomavirus macacae;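 note: Confirmatory-stage PubChem screen for compounds that inhibit SV40 T antigen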
cells [8] = assay type: functional, cell-based
[9] = inhibitors of SNCA 5'UTR-driven reporter translation, confirmation, H4 neuroglioma cells, luminescence (AID 1988); assay type: functional, cell-based
INS1 = experiment: beta cell apoptosis inhibitors, cytokine rescue, dose response, luminescence, retest (AID 449756); assay type: functional, cell-based; details: Rattus norvegicus;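 note: cell death triggered by IL-1 beta plus TNF-alpha plus IFN-gamma mixture; protective hits raise ATP signal compared with cytokine alone wells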
[10] = Luminescence Cell-Based Dose Response HTS to Identify Inhibitors of 5'UTR Stem-Loop Driven Prion Protein mRNA Translation in H4 Neuroglioblastoma Cells. [Related pubchem assays: 1827 (Project Summary), 1813 (Primary HTS)]; assay type: functional
[11] = C. albicans growth with fluconazole, confirmation, fluorescence, retest (AID 2467); assay type: functional, cell-based
cells [12] = assay type: functional, cell-based; remark: listed apart in the source
[13] = inhibitors of intracellular T. cruzi replication, confirmation, NIH3T3 host cells, beta-gal luminescence (AID 2044); assay type: functional, cell-based;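 note: intracellular parasites grown in NIH/3T3 mouse fibroblasts as host cells; luminescent beta-galactosidase reporter signal from transgenic T. cruzi replicating inside host cells; inhibitors lower the luminescence signal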
[14] = NIH-3T3 fibroblast cytotoxicity, dose response, cytotoxicity control, cell-based, fluorescence, Alamar Blue, secondary assay (AID 2327); assay type: functional;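 note: NIH-3T3 mouse fibroblasts cultured with fluconazole at 8 µg/mL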
Streptokinase A = target: T2, Streptokinase A (Streptococcus pyogenes serotype M1, UniProt P10520); experiment: S. pyogenes streptokinase expression inhibitors, potency, dose response, plasminogen activation absorbance, OD405 (AID 1914); assay type: functional, Streptococcus pyogenes M1 GAS;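 note: secreted streptokinase activity via plasminogen activation per viability signal from cell pellet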
T2 sequence (P10520 whole entry): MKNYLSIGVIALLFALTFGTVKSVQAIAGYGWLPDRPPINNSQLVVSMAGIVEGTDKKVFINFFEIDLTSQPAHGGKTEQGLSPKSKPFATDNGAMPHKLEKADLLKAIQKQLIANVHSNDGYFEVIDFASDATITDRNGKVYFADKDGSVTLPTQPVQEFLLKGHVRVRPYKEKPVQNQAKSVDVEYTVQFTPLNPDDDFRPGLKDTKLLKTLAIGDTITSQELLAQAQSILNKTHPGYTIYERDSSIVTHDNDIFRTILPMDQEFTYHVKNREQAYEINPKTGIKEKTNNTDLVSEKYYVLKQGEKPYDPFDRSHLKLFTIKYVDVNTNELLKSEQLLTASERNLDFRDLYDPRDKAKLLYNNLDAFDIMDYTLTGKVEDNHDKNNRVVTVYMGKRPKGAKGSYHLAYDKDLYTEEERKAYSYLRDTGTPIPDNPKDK

[15] = cytotoxicity toward NIH3T3 fibroblasts, dose response, counter-screen, cell-based, ATP luminescence, mouse fibroblasts (AID 2010); assay type: functional;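 note: cells exposed to compound for about 90 hours before reading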
[16] = inhibitors of firefly luciferase expression or activity, dose response, H4 neuroglioma cells, luminescence (AID 1990); assay type: functional, cell-based
[17] = system: Streptococcus sp. 'group A'; experiment: growth inhibition of control SK(-) GAS strain, dose response, counter-screen for streptokinase expression inhibitor project, luminescence, kanamycin, BacTiterGlo, confirmation (AID 1900); assay type: functional, organism-based
Streptococcus = experiment: Group A Streptococcus viability loss, dose response, counter-screen for streptokinase expression inhibitor project, luminescence, BacTiterGlo (AID 1915); assay type: functional, organism-based;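 note: potency for reduction of bacterial viability or growth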
Cytochrome P450 2C19 = Cytochrome P450 2C19 (Homo sapiens, UniProt P33261); experiment: Cytochrome panel assay with activity outcomes. Panel member name: p450-cyp2c19 Compounds with AC50 equal or less than 10 uM are considered active; assay type: functional; details: read-out: AC50
[18] = target: T3, RNA-binding protein pos-1 (Caenorhabditis elegans, UniProt G5EF15); experiment: inhibitors of POS-1/mex-3 RNA binding, dose response, biochemical, fluorescence polarization (AID 1964);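 note: purified POS-1 fused to maltose binding protein made in E. coli; potency of compounds blocking POS-1 binding to fluorescent RNA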
T3 sequence (G5EF15 whole entry): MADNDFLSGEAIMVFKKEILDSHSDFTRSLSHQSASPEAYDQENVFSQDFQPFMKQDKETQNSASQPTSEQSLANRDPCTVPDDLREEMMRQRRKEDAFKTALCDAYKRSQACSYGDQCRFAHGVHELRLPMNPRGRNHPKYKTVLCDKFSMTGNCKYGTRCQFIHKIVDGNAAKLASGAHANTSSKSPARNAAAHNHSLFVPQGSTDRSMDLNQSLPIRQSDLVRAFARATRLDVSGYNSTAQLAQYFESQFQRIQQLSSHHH

[19] = target: T4, Zinc finger protein mex-5 (Caenorhabditis elegans, UniProt Q9XUB2); experiment: MEX-5/TCR-2 RNA interaction inhibitors, dose response, biochemical, C. elegans, fluorescence polarization (AID 1960)
T4 sequence (Q9XUB2 whole entry): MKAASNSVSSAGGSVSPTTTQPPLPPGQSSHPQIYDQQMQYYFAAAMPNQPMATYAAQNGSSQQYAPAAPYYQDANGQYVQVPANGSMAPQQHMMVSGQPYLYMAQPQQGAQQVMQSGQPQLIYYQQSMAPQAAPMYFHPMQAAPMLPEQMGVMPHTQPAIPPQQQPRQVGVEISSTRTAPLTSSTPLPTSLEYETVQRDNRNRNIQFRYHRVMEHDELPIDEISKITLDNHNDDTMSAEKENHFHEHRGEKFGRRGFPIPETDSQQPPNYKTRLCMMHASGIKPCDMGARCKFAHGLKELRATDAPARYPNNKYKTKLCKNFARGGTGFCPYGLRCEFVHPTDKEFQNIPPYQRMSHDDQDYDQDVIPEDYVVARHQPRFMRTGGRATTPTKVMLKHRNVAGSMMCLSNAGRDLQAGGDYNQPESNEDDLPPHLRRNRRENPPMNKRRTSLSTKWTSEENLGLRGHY

[20] = THP-1 cell cytotoxicity, dose response, cytotoxicity control for non-replicating M. tuberculosis project (AID 489025); assay type: functional

Sequence of FAD-linked sulfhydryl oxidase ALR (P55789 whole entry): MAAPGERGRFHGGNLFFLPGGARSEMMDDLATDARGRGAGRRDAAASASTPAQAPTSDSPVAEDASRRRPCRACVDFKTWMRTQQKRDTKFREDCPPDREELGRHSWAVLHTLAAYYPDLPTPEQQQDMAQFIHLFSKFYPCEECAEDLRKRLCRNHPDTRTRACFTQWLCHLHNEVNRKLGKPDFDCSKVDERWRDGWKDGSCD
Sequence of DNA dC->dU-editing enzyme APOBEC-3G (Q9HC16 whole entry): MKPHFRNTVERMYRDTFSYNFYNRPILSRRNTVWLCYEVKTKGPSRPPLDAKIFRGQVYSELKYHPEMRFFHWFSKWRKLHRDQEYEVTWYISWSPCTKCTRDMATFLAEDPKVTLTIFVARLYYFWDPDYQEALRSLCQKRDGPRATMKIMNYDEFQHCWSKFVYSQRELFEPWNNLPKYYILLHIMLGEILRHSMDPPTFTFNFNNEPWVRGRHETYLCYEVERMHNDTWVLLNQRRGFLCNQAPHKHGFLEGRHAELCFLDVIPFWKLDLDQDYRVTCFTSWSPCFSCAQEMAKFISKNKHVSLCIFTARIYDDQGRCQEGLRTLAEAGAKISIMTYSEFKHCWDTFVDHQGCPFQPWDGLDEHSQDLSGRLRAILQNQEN
Sequence of DNA dC->dU-editing enzyme APOBEC-3A (P31941 whole entry): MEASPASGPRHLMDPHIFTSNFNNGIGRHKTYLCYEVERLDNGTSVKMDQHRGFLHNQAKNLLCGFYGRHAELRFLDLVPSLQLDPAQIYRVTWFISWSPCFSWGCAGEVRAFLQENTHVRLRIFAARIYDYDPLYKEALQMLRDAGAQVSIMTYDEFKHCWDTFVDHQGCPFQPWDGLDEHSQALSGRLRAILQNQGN
Sequence of Nonstructural protein 1 (Q194T2 whole entry): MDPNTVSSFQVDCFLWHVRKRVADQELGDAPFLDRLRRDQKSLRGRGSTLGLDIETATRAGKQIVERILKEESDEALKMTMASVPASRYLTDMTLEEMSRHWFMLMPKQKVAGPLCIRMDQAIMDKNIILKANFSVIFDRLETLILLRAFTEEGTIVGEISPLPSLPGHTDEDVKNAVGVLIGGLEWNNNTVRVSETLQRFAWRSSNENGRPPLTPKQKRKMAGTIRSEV
Sequence of Large T antigen (P03070 whole entry): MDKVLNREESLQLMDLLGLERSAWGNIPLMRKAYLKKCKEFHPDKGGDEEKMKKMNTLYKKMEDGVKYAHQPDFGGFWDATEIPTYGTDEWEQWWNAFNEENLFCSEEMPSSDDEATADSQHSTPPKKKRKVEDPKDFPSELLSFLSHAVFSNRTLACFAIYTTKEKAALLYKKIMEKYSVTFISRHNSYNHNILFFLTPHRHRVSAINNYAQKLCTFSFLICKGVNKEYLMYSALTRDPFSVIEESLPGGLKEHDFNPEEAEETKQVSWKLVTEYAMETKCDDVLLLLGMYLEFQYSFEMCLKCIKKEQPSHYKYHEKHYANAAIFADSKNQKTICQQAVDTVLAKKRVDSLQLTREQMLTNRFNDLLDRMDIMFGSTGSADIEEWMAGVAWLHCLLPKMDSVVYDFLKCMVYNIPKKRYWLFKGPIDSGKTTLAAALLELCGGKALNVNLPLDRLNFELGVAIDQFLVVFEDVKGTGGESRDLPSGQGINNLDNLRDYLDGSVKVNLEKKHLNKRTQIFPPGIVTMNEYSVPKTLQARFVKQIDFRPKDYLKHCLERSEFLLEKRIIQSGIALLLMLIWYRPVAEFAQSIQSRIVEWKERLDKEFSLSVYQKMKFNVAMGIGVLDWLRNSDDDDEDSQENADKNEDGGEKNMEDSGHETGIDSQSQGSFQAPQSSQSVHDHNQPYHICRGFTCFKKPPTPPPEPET
Sequence of Cytochrome P450 2C19 (P33261 whole entry, the tested form may be a part): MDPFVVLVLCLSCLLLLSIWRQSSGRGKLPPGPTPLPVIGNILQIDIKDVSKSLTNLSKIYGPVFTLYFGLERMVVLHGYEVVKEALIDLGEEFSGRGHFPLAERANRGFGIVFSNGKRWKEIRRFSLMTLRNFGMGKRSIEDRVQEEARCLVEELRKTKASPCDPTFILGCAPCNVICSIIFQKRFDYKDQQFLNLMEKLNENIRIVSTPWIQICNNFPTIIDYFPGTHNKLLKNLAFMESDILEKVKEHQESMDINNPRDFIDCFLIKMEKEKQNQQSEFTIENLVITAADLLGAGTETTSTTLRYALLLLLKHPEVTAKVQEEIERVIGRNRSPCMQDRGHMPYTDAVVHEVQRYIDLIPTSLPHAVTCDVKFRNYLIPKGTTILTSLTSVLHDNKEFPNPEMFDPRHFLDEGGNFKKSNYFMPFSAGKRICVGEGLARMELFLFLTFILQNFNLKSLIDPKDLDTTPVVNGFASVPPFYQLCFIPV

COc1ccc(-c2c(C)nn3c(NC4CCCC4)cc(C)nc23)cc1OC
EC50 [1]: > 260 µM (inactive)

Cn1cc(/C=N/NC(=O)c2cc3cc(Br)ccc3o2)c2ccccc21
IC50 [2]: 39.3 µM (active)
IC50 [3]: 3.98 µM (active)

CCOC(=O)CNC(=O)C1(NC(=O)CNC(=O)OCc2ccccc2)CCCC1 (Cbz-Gly-[Ac5c]-Gly-OEt)
AC50 [4]: 49.2 µM (active)

CC(C)(C)c1ccc(NC(=O)C2=CN3CCS(=O)(=O)N=C3C=C2)cc1
IC50 [2]: 8.51 µM (active)
IC50 [3]: 5.24 µM (active)

COc1cc(/C=N/N2CCCCC2)cc(OC)c1O
AC50 [5]: 0.639 µM (active)

COc1ccc2cc(/C=C/C(=O)N3CCN(CC(=O)N4CCCCCC4)CC3)ccc2c1
EC50 [1]: > 260 µM (inactive)

COc1ccc(N2CCN(C(CNS(=O)(=O)c3ccc(C)cc3)c3ccccc3)CC2)cc1 (centres undefined)
IC50 (Nonstructural protein 1): > 100 µM (active)

CC(C)(C)[C@@H]1COC(=O)[C@@H](NC(=O)OCC2c3ccccc3-c3ccccc32)C/C=C\C[C@@H](CC(=O)NCCO)C(=O)N1
AC50 [6]: 22.1 µM (active)
AC50 [4]: 26.3 µM (active)

CN1C(=O)C(=CNNc2ccccc2)C(=O)N(C)C1=O
AC50 [7]: 2.87 µM (active)
AC50 [5]: 0.031 µM (active)

Cn1c(Cc2ccccc2)nnc1SCCC(=O)Nc1ccccc1
IC50 [2]: 4.55 µM (active)
IC50 [3]: 2.03 µM (active)

CC(C)c1ccc(CN(C)C(=O)c2ccc(S(=O)(=O)NCc3ccco3)cc2)cc1
CC50 (Vero): 12.7 µM (active)

O=C(CSC1=NCCS1)NC1CCCCC1
IC50 [2]: 3.76 µM (active)
IC50 [3]: 3.67 µM (active)

COc1ccc(NC(=O)C(=O)N2N=C3CCCCC3C2(O)C(F)(F)F)cc1 (centres undefined)
IC50 [2]: 6.97 µM (active)
IC50 [3]: 6.08 µM (active)

CCOc1ccc(NCc2cccn2-c2nnc(N3CCC(C(=O)NCCCN4CC(C)CC(C)C4)CC3)s2)cc1 (centres undefined)
IC50 (Large T antigen): 19.3 µM (active)
CC50 (Vero): 23.9 µM (active)

C[n+]1cccc(C(=O)NCC2CCCO2)c1 (centres undefined)
IC50 [2]: 4.44 µM (active)
IC50 [3]: 2.55 µM (active)

CCN(CC)c1ccc(/C=N/NC(=O)CNC(=O)C2COc3ccccc3O2)c(O)c1 (centres undefined)
EC50 (cells [8]): > 350 µM (not active)
EC50 [9]: 0.311 µM (active)
AC50 (INS1): 1.31 µM (active)
EC50 [10]: 0.646 µM (active)
EC50 [11]: 1.51 µM (active)
EC50 (cells [12]): 66.6 µM (active)
EC50 [13]: 1.2 µM (active)
EC50 [14]: 5.42 µM (inconclusive)
EC50 (Streptokinase A): > 150 µM (not active)
EC50 [15]: 4.2 µM (active)
EC50 [16]: 0.229 µM (active)
EC50 [17]: 8.15 µM (active)
EC50 (Streptococcus): > 150 µM (not active)

CN(Cc1ccccc1)C(=O)CC(=O)N(C)Cc1ccccc1
EC50 (cells [8]): > 350 µM (not active)
EC50 (cells [12]): > 350 µM (not active)

O=C1N(c2ccccc2)CCN1c1ccccc1
EC50 [1]: > 260 µM (inconclusive)

COc1ccc(N2CCN(C(=O)CN(C)S(=O)(=O)c3cc(C)ccc3OC)CC2)cc1
EC50 (cells [8]): > 350 µM (not active)
EC50 (cells [12]): > 350 µM (not active)

O=C(N/N=C\c1c(O)ccc2ccccc12)c1ccc(O)cc1
EC50 (cells [8]): > 350 µM (not active)
EC50 [9]: 5.97 µM (active)
EC50 [10]: 8.71 µM (active)
EC50 (cells [12]): 10.6 µM (active)
EC50 [16]: 10 µM (active)

Cc1nc2ccccc2n2c(-c3ccccc3)c3c(=O)n(C)c(=O)n(C)c3c12
EC50 (cells [8]): > 350 µM (not active)
EC50 (cells [12]): > 350 µM (not active)

Cc1ccc(-c2nn(-c3cc(Cl)ccc3[N+](=O)[O-])c(=O)c3ccccc23)cc1
EC50 [1]: > 260 µM (inactive)

Cc1c(NC(=O)c2cc(-n3cnnc3)ccc2Cl)cccc1-c1nc2ccccc2o1
IC50 [2]: 2.65 µM (active)
IC50 [3]: 2.56 µM (active)

Nc1nonc1-n1nnc(C(=O)N/N=C/c2ccc(OCc3ccc(F)cc3)cc2)c1COc1ccccc1
CC50 (Vero): > 25 µM (active)

Oc1cc(O)nc(SCc2ccccc2)n1
AC50 [5]: 2.33 µM (active)

COCc1cc(C)nc(N2CCN(Cc3ccccc3)CC2)c1C#N
IC50 [2]: 3.55 µM (active)
IC50 [3]: 3.15 µM (active)

COc1cccc(-c2noc(Cn3nc(C)c([N+](=O)[O-])c3C)n2)c1
AC50 (Cytochrome P450 2C19): 1 µM (inconclusive)
AC50 [5]: 0.983 µM (active)

O=C1Nc2ccc(Cl)cc2/C1=C/C1CC=CCC1 (centres undefined)
EC50 (cells [8]): 61.2 µM (active)
EC50 (cells [12]): > 350 µM (not active)

O=C(CC(=O)N/N=C/c1ccc(O)cc1)N/N=C/c1ccc(O)cc1
IC50 (Large T antigen): 13.8 µM (active)
AC50 [5]: 1.15 µM (active)

CC1(c2ccccc2)CC2CC(c3ccccc3)N1O2 (centres undefined)
EC50 [1]: > 260 µM (inactive)

Cc1nc2cc(N)ccc2n1C1CCCCC1
EC50 [18]: > 300 µM (not active)
EC50 [19]: 4.72 µM (inconclusive)
AC50 [5]: 0.277 µM (active)

CC(C)NS(=O)(=O)c1ccc2c(c1)NCC2
AC50 [5]: 5.77 µM (active)

O=S(=O)(c1ccc(OCC2CO2)cc1)c1ccc(OCC2CO2)cc1 (centres undefined)
CC50 [20]: 32.2 µM (active)

Cc1ccc(S(=O)(=O)N2CC(O)C[C@H]2C(=O)OCC(=O)Nc2ccc(N3CCCCC3)cc2)cc1C (some centres undefined)
IC50 (Nonstructural protein 1): 62.8 µM (active)
